# From patent US20110039762A1, “TARGETED ANTIMICROBIAL MOIETIES” (C3 JIAN, INC., priority 2009, published 2011)
# Entries after “also recorded” stand apart in the source; their conditions may differ.
# System: microorganisms (e.g., bacteria, yeasts, fungi)
# Experiment: Targeting peptide binding to target microorganisms (Table 3)
# Details: microorganism the targeting peptide binds; binding in aqueous buffers varied by peptide solubility, preferably 1x PBS
row,Substance,Target(s)
1,1T-36 (VYRHLRFIDGKLVEIRLERK; Peptide with targeting and/or antimicrobial activity) [Peptide 1T-36],S. aureus; also recorded: S. epidermidis; also recorded: C. jeikeium; also recorded: C. xerosis; also recorded: C. striatum; also recorded: P. aeruginosa
2,1T-37 (YIVGALVILAVAGLIYSMLRKA; Peptide with targeting and/or antimicrobial activity) [Peptide 1T-37],S. mutans; also recorded: S. aereus; also recorded: S. epidermidis; also recorded: C. jeikeium; also recorded: C. xerosis; also recorded: C. striatum; also recorded: P. aeruginosa
3,1T-38 (VMFVLTRGRSPRPMIPAY; Peptide with targeting and/or antimicrobial activity) [Peptide 1T-38],S. mutans; also recorded: S. aereus; also recorded: S. epidermidis; also recorded: C. jeikeium; also recorded: C. xerosis; also recorded: C. striatum; also recorded: P. aeruginosa
4,1T-39 (FGFCVWMYQLLAGPPGPPA; Peptide with targeting and/or antimicrobial activity) [Peptide 1T-39],S. mutans; also recorded: P. aeruginosa
5,1T-40 (QRVSLWSEVEHEFR; Peptide with targeting and/or antimicrobial activity) [Peptide 1T-40],S. mutans; also recorded: P. aeruginosa
6,1T-41 (KRGSKIVIAIAVVLIVLAGVWVW; Peptide with targeting and/or antimicrobial activity) [Peptide 1T-41],S. mutans; also recorded: S. aureus; also recorded: S. epidermidis; also recorded: C. jeikeium; also recorded: C. striatum; also recorded: P. aeruginosa
7,1T-42 (TVLDWLSLALATGLFVYLLVALLRADRA; Peptide with targeting and/or antimicrobial activity) [Peptide 1T-42],S. aureus; also recorded: S. epidermidis; also recorded: C. xerosis; also recorded: C. striatum; also recorded: P. aeruginosa
8,1T-43 (DRCLSVLSWSPPKVSPLI; Peptide with targeting and/or antimicrobial activity) [Peptide 1T-43],C. jeikium; also recorded: P. aeruginosa
9,1T-44 (DPALADFAAGMRAQVRT; Peptide with targeting and/or antimicrobial activity) [Peptide 1T-44],S. mutans; also recorded: S. aureus; also recorded: S. epidermidis; also recorded: C. jeikeium; also recorded: C. striatum; also recorded: P. aeruginosa
10,1T-45 (WTKPSFTDLRLGFEVTLYFANR; Peptide with targeting and/or antimicrobial activity) [Peptide 1T-45],S. aureus; also recorded: S. epidermidis; also recorded: C. striatum; also recorded: P. aeruginosa
11,1T-46 (FSFKQRVMFRKEVERLR; Peptide with targeting and/or antimicrobial activity) [Peptide 1T-46],S. aureus; also recorded: S. epidermidis; also recorded: C. jeikeium; also recorded: C. xerosis; also recorded: C. striatum; also recorded: P. aeruginosa
12,1T-47 (VIKISVPGQVQMLIP; Peptide with targeting and/or antimicrobial activity) [Peptide 1T-47],S. mutans; also recorded: S. epidermidis; also recorded: P. aeruginosa
13,1T-48 (KLQVHHGRATHTLLLQPPLCAPGTIR; Peptide with targeting and/or antimicrobial activity) [Peptide 1T-48],S. aureus; also recorded: S. epidermidis; also recorded: C. jeikeium; also recorded: C. xerosis; also recorded: C. striatum; also recorded: P. aeruginosa
14,1T-49 (SLVRIHDQQPWVTRGAFIDAARTCS; Peptide with targeting and/or antimicrobial activity) [Peptide 1T-49],S. aureus; also recorded: S. epidermidis; also recorded: C. jeikeium; also recorded: P. aeruginosa
15,1T-50 (HSDEPIPNILFKSDSVH; Peptide with targeting and/or antimicrobial activity) [Peptide 1T-50],P. aeruginosa
16,1T-51 (GKPKRMPAEFIDGYGQALLAGA; Peptide with targeting and/or antimicrobial activity) [Peptide 1T-51],S. aureus; also recorded: P. aeruginosa
17,1T-52 (DEYPAKLPLSDKGATEPRRH; Peptide with targeting and/or antimicrobial activity) [Peptide 1T-52],S. aureus; also recorded: C. xerosis; also recorded: P. aeruginosa
18,1T-53 (SDILAEMFEKGELQTLVKDAAAKANA; Peptide with targeting and/or antimicrobial activity) [Peptide 1T-53],P. aeruginosa
19,1T-54 (RWVSCNPSWRIQ; Peptide with targeting and/or antimicrobial activity) [Peptide 1T-54],S. epidermidis; also recorded: C. xerosis; also recorded: C. striatum; also recorded: P. aeruginosa
20,1T-55 (NHKTLKEWKAKWGPEAVESWATLLG; Peptide with targeting and/or antimicrobial activity) [Peptide 1T-55],C. xerosis; also recorded: P. aeruginosa
21,1T-56 (LALIGAGIWMIRKG; Peptide with targeting and/or antimicrobial activity) [Peptide 1T-56],C. xerosis; also recorded: P. aeruginosa
22,1T-57 (RLEYRRLETQVEENPESGRRPMRG; Peptide with targeting and/or antimicrobial activity) [Peptide 1T-57],P. aeruginosa
23,1T-58 (CDDLHALERAGKLDALLSA; Peptide with targeting and/or antimicrobial activity) [Peptide 1T-58],P. aeruginosa
24,1T-59 (AVGNNLGKDNDSGHRGKKHRKHKHR; Peptide with targeting and/or antimicrobial activity) [Peptide 1T-59],S. aureus; also recorded: S. epidermidis; also recorded: P. aeruginosa
25,1T-60 (YLTSLGLDAAEQAQGLLTILKG; Peptide with targeting and/or antimicrobial activity) [Peptide 1T-60],S. aureus; also recorded: S. epidermidis; also recorded: C. jeikeium; also recorded: C. striatum; also recorded: P. aeruginosa
26,1T-61 (HATLLPAVREAISRQLLPALVPRG; Peptide with targeting and/or antimicrobial activity) [Peptide 1T-61],P. aeruginosa
27,1T-62 (GCKGCAQRDPCAEPEPYFRLR; Peptide with targeting and/or antimicrobial activity) [Peptide 1T-62],S. epidermidis; also recorded: P. aeruginosa
28,1T-63 (EPLILKELVRNLFLFCYARALR; Peptide with targeting and/or antimicrobial activity) [Peptide 1T-63],S. aureus; also recorded: S. epidermidis; also recorded: C. jeikeium; also recorded: C. xerosis; also recorded: C. striatum; also recorded: P. aeruginosa
29,1T-64 (QTVHHIHMHVLGQRQMHWPPG; Peptide with targeting and/or antimicrobial activity) [Peptide 1T-64],S. aureus; also recorded: S. epidermidis; also recorded: C. jeikeium; also recorded: C. xerosis; also recorded: C. striatum; also recorded: P. aeruginosa
